In patent publication US9694016B2 (Novartis AG, priority 2013, dated 2017) one finds IC50 data, which are given here for 32 compounds.

The structures appear in SMILES notation.

For one assay, the target named is b-Raf (V600E) (Homo sapiens (Human), UniProt P15056, V600E). The conditions noted are these: read-out: b-Raf IC-50; AlphaScreen, 60 min pre-incubation, 3 hours reaction. For orientation: Bead proximity is the source of the signal in Alpha formats.
Sequence of b-Raf (V600E) (P15056 whole entry V600E): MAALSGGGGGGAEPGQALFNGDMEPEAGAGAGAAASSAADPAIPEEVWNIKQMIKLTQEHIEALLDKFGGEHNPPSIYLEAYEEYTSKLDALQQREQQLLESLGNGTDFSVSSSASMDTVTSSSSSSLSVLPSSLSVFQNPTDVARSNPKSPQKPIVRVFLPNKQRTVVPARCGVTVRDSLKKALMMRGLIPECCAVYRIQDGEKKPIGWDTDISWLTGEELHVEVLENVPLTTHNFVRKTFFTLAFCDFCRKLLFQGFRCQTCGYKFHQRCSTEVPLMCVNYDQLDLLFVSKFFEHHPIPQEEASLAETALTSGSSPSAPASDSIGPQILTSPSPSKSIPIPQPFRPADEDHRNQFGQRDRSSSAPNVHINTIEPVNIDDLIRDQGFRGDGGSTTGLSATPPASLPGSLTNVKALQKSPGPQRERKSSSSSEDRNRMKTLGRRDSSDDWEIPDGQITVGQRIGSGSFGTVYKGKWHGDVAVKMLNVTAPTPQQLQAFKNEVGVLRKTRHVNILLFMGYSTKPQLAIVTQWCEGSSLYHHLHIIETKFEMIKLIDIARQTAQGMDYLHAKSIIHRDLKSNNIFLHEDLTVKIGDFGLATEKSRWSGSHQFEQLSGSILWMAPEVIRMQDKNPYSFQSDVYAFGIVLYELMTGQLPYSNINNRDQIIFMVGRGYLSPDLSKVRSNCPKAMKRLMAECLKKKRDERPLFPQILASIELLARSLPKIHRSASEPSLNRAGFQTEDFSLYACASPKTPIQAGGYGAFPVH
As for `Cc1ccc(NC(=O)c2ccnc(C(F)F)c2)cc1-c1cc(N2CCOCC2)c(OC(C)C)nn1` [Example 593, 2-(difluoromethyl)-N-(3-(6-isopropoxy-5-morpholinopyridazin-3-yl)-4-methylphenyl)isonicotinamide], the IC50 worked out at 0.6 nM. For the compound `CCC(F)(F)c1cc(C(=O)Nc2ccc(C)c(-c3cc(N4CCOCC4)c(OCCO)nn3)c2)ccn1` [Example 589, 2-(1,1-difluoropropyl)-N-(3-(6-(2-hydroxyethoxy)-5-morpholinopyridazin-3-yl)-4-methylphenyl)isonicotinamide], the IC50 came to 1.5 nM. Turning to `Cc1ncc(NC(=O)c2cccc(C(F)(F)F)c2)cc1-c1ccc(S(C)(=O)=O)c(N2CCOCC2)c1` [Example 687, N-(6-methyl-5-(4-(methylsulfonyl)-3-morpholinophenyl)pyridin-3-yl)-3-(trifluoromethyl)benzamide], the IC50 worked out at 0.8 nM. As to `CCNc1nc(-c2cc(NC(=O)c3ccnc(C4(C#N)CC4)c3)cnc2C)cc(N2CCOCC2)n1` [Example 728, 2-(1-cyanocyclopropyl)-N-(5-(2-(ethylamino)-6-morpholinopyrimidin-4-yl)-6-methylpyridin-3-yl)isonicotinamide], the IC50 amounted to 4.4 nM. Still for that read-out and setting: the same measure for `CCn1cc(C(=O)Nc2cnc(C)c(-c3cc(N4CCOCC4)n(C)c(=O)c3)c2)cc(C(F)(F)F)c1=O` [Example 502, N-(1′,2-dimethyl-6′-morpholino-2′-oxo-1′,2′-dihydro-[3,4′-bipyridin]-5-yl)-1-ethyl-6-oxo-5-(trifluoromethyl)-1,6-dihydropyridine-3-carboxamide]: 20 nM. On the same count and under the same terms, the same measure for `CCn1c(N2CCOCC2)cc(-c2cc(NC(=O)c3ccnc(C(C)(F)F)c3)ccc2C)cc1=O` [Example 519, 2-(1,1-difluoroethyl)-N-(3-(1-ethyl-6-morpholino-2-oxo-1,2-dihydropyridin-4-yl)-4-methylphenyl)isonicotinamide]: 0.6 nM; for `Cc1ncc(NC(=O)c2ccnc(C3CC3)c2)cc1-c1cc(N2CCOCC2)c(=O)n(C)n1` [Example 682, 2-cyclopropyl-N-(6-methyl-5-(1-methyl-5-morpholino-6-oxo-1,6-dihydropyridazin-3-yl)pyridin-3-yl)isonicotinamide]: 6.9 nM; for `Cc1ccc(NC(=O)c2cccc(C(C)(C)S(C)(=O)=O)c2)cc1-c1cc(N2CCOCC2)n(C)c(=O)c1` [Example 494, N-(4-methyl-3-(1-methyl-6-morpholino-2-oxo-1,2-dihydropyridin-4-yl)phenyl)-3-(2-(methylsulfonyl)propan-2-yl)benzamide]: 16.8 nM.

In the case of `Cc1ncc(NC(=O)c2cccc(C(F)F)c2)cc1-c1cc(N2CCOCC2)c(=O)n(C)n1` [Example 681, 3-(difluoromethyl)-N-(6-methyl-5-(1-methyl-5-morpholino-6-oxo-1,6-dihydropyridazin-3-yl)pyridin-3-yl)benzamide], the IC50 is 3.1 nM.

Still in this assay, the particulars now being: read-out: b-Raf IC-50; AlphaScreen, 60 min pre-incubation, reaction 3 hours at room temperature.
Regarding `Cc1ncc(NC(=O)c2cccc(-c3nnco3)c2)cc1-c1cc(N2CCOCC2)nc(N2CC(O)C2)c1` [Example 1092, N-(2′-(3-hydroxyazetidin-1-yl)-2-methyl-6′-morpholino-[3,4′-bipyridin]-5-yl)-3-(1,3,4-oxadiazol-2-yl)benzamide], the IC50 was found to be 34.9 nM. Regarding `Cc1ccc(NC(=O)c2ccnc(C(F)(F)F)c2)cc1-c1cc(NC[C@@H](C)O)nc(N2CCOCC2)c1` [Example 991, (R)—N-(3-(2-((2-hydroxypropyl)amino)-6-morpholinopyridin-4-yl)-4-methylphenyl)-2-(trifluoromethyl)isonicotinamide], the IC50 stood at 2.36 nM. In the case of `Cc1ncc(NC(=O)c2ccnc(C(C)(C)F)c2)cc1-c1cnc(OC2CC3(COC3)C2)c(N2CCOCC2)c1` [Example 963, N-(6′-(2-oxaspiro[3.3]heptan-6-yloxy)-2-methyl-5′-morpholino-[3,3′-bipyridin]-5-yl)-2-(2-fluoropropan-2-yl)isonicotinamide], the IC50 was 2.88 nM. As for `CCOc1cc(-c2cc(NC(=O)c3ccnc(C(F)(F)F)c3)ccc2C)cc(N2CCOCC2)n1` [Example 1133, N-(3-(2-ethoxy-6-morpholinopyridin-4-yl)-4-methylphenyl)-2-(trifluoromethyl)isonicotinamide], the IC50 came to 1.29 nM. On the same count and under the same terms, the same measure for `Cc1ncc(NC(=O)c2ccnc(C(C)(F)F)c2)cc1-c1cc(NCCO)nc(N2CCOCC2)c1` [Example 1041, 2-(1,1-difluoroethyl)-N-(2′-((2-hydroxyethyl)amino)-2-methyl-6′-morpholino-[3,4′-bipyridin]-5-yl)isonicotinamide]: 5.72 nM. Same read-out and setting: the same measure for `Cc1ccc(NC(=O)c2ccnc(C(C)(C)C#N)c2)cc1-c1cc(OCCO)nc(N2CCOCC2)c1` [Example 1161, 2-(2-cyanopropan-2-yl)-N-(3-(2-(2-hydroxyethoxy)-6-morpholinopyridin-4-yl)-4-methylphenyl)isonicotinamide]: 1.5 nM; for `Cc1ncc(NC(=O)c2ccnc(C(C)(C)F)c2)cc1-c1cc(N2CCOCC2)c(S(C)(=O)=O)nn1` [Example 927, 2-(2-fluoropropan-2-yl)-N-(6-methyl-5-(6-(methylsulfonyl)-5-morpholinopyridazin-3-yl)pyridin-3-yl)isonicotinamide]: 7.91 nM; for `Cc1ccc(NC(=O)c2ccnc(C(F)(F)F)c2)cc1-c1cc(NC2CCOC2)nc(N2CCOCC2)c1` (centres unmarked) [Example 1054, N-(4-methyl-3-(2-morpholino-6-((tetrahydrofuran-3-yl)amino)pyridin-4-yl)phenyl)-2-(trifluoromethyl)isonicotinamide]: 1.18 nM. Still for that read-out and setting: the same measure for `Cc1ncc(NC(=O)c2ccnc(C(C)(F)F)c2)cc1-c1cc(N2CCOCC2)c2nccn2c1` [Example 879, 2-(1,1-difluoroethyl)-N-(6-methyl-5-(8-morpholinoimidazo[1,2-a]pyridin-6-yl)pyridin-3-yl)isonicotinamide]: 6.1 nM. In the case of `Cc1ncc(NC(=O)c2cccc(C(F)(F)F)c2)cc1-c1cc(N2CCOCC2)c2nccn2c1` [Example 883, N-(6-methyl-5-(8-morpholinoimidazo[1,2-a]pyridin-6-yl)pyridin-3-yl)-3-(trifluoromethyl)benzamide], the IC50 came to 1.7 nM.

Regarding `Cc1ccc(NC(=O)c2cnncc2C(F)F)cc1-c1cc(N2CCOCC2)nc(N2CC(O)C2)c1` [Example 1075, 5-(difluoromethyl)-N-(3-(2-(3-hydroxyazetidin-1-yl)-6-morpholinopyridin-4-yl)-4-methylphenyl)pyridazine-4-carboxamide], the IC50 amounted to 682 nM. Regarding `Cc1ccc(NC(=O)c2cc(C(C)(C)O)ccn2)cc1-c1cnc(OC(C)C)c(N2CCOCC2)c1` [Example 949, 4-(2-hydroxypropan-2-yl)-N-(3-(6-isopropoxy-5-morpholinopyridin-3-yl)-4-methylphenyl)picolinamide], the IC50 came to 3.63 nM.

For `CCC(F)(F)c1cc(C(=O)Nc2cnc(C)c(-c3cnc(OC(F)F)c(N4CCOCC4)c3)c2)ccn1` [Example 983, N-(6′-(difluoromethoxy)-2-methyl-5-morpholino-[3,3′-bipyridin]-5-yl)-2-(1,1-difluoropropyl)isonicotinamide], the IC50 amounted to 2.99 nM.

On to `Cc1ccc(NC(=O)c2ccnc(C(F)(F)F)c2)cc1-c1cc(N2CCOCC2)nc(N2CC(O)C2)c1` [Example 1060, N-(3-(2-(3-hydroxyazetidin-1-yl)-6-morpholinopyridin-4-yl)-4-methylphenyl)-2-(trifluoromethyl)isonicotinamide], for which the IC50 was determined as 3.93 nM. The same measure, in the same setting: the same measure for `Cc1ccc(NC(=O)c2ccnc(C3CC3)c2)cc1-c1cnc(OCCO)c(N2CCOCC2)c1` [Example 999, 2-cyclopropyl-N-(3-(6-(2-hydroxyethoxy)-5-morpholinopyridin-3-yl)-4-methylphenyl)isonicotinamide]: 0.91 nM; for `Cc1ncc(NC(=O)c2ccnc(C3CC3)c2)cc1-c1cc(C2COCCO2)nc(N2CCOCC2)c1` (centres unmarked) [Example 1169, N-(2′-(1,4-dioxan-2-yl)-2-methyl-6′-morpholino-[3,4′-bipyridin]-5-yl)-2-cyclopropylisonicotinamide]: 3.01 nM.

Staying with this assay, now noted: read-out: b-Raf IC-50; Table 2; AlphaScreen, 3 hours reaction.
With `Cc1ncc(NC(=O)c2ccnc(C(C)(C)F)c2)cc1-c1cnc(Cl)c(N2CCOCC2)c1` [Example 290, N-(6′-chloro-2-methyl-5′-morpholino-[3,3-bipyridin]-5-yl)-2-(2-fluoropropan-2-yl)isonicotinamide], the IC50 was 6 nM. On the same count and under the same terms, the same measure for `Cc1ncc(NC(=O)c2cccc(C(F)(F)F)c2)cc1-c1cnc(OCCO)c(N2CCOCC2)c1` [Example 145, N-(6′-(2-hydroxyethoxy)-2-methyl-5′-morpholino-[3,3′-bipyridin]-5-yl)-3-(trifluoromethyl)benzamide]: 3 nM; for `COc1ncc(-c2cc(NC(=O)c3ccnc(C(C)(C)F)c3)cnc2C)cc1N1CCOCC1` [Example 281, N-(6′-methoxy-2-methyl-5′-morpholino-[3,3′-bipyridin]-5-yl)-2-(2-fluoropropan-2-yl)isonicotinamide]: 6.3 nM; for `Cc1ncc(NC(=O)c2ccnc(C(F)F)c2)cc1-c1cc(N2CCOCC2)c(=O)n(C)c1` [Example 392, 2-(difluoromethyl)-N-(1′,2-dimethyl-5′-morpholino-6′-oxo-1′,6′-dihydro-[3,3′-bipyridin]-5-yl)isonicotinamide]: 15.3 nM. In the case of `Cc1ccc(NC(=O)c2cccc(C(F)F)c2)cc1-c1cc(N2CCOCC2)c(=O)n(CCC#N)c1` [Example 336, N-(3-(1-(2-cyanoethyl)-5-morpholino-6-oxo-1,6-dihydropyridin-3-yl)-4-methylphenyl)-3-(difluoromethyl)benzamide], the IC50 turned out to be 5.5 nM. Take `Cc1ncc(NC(=O)c2cccc(OC(C)C)c2)cc1-c1cc(N2CCOCC2)c(=O)n(C)c1` [Example 398, N-(1′,2-dimethyl-5′-morpholino-6′-oxo-1′,6′-dihydro-[3,3′-bipyridin]-5-yl)-3-isopropoxybenzamide]: the IC50 came out at 8.4 nM. For `Cc1ccc(C(=O)Nc2ccccn2)cc1-c1cc(N2CCOCC2)c(=O)n(C)c1` [Example 432, 4-methyl-3-(1-methyl-5-morpholino-6-oxo-1,6-dihydropyridin-3-yl)-N-(pyridin-2-yl)benzamide], the IC50 stood at 99 nM.
